Literature values as cited in patent publication US20110243859A1, “ENCAPSULATING SYSTEM FOR CEST IMAGING WITH CHELATE Q GREATER THAN OR EQUAL TO 2” (GUERBET, priority 2008, published 2011).

Settings: monomeric chelate

| Compound | Value q |
| --- | --- |
| CC(C(=O)O)N1CCN(C(C)C(=O)O)CCN(C(C)C(=O)O)CC1 (stereo not drawn) [NOTMA] | 2 |
| CC(CN(CC(=O)O)CC(=O)O)N(CC(=O)O)CC(=O)O (stereo not drawn) [MeDTA] | 2 |
| O=C(O)CN1CCN(CC(=O)O)Cc2cccc(n2)CN(CC(=O)O)CC1 [PCTA] | 2 |
| O=C(O)CN1CCNCCN(CC(=O)O)CCN(CC(=O)O)CC1 [DO3A] | 2 |
| O=C(O)CN1CCN(CC(=O)O)CCN(CC(=O)O)CCN(CC(=O)O)CC1 [DOTA] | 1 |
| CC(O)CN1CCN(CC(=O)O)CCN(CC(=O)O)CCN(CC(=O)O)CC1 (stereo not drawn) [HP-DO3A] | 1 |
| NC1C(O)C(N)C(O)C(N)C1O (stereo not drawn) [Taci] | 2 |
| CC1(N(CC(=O)O)CC(=O)O)CN(CC(=O)O)CCN(CC(=O)O)C1 [AAZTA] | 2 |
| texaphyrin [Tx] | 3.5 |
| O=C(O)CN1CCNCCN(CC(=O)O)CCNCC1 [DO2A] | 3 |
| CC(C(=O)O)N1CCNCCN(C(C)C(=O)O)CCN(C(C)C(=O)O)CC1 (stereo not drawn) [DO3MA] | 2 |

Settings: spherical liposome, maximum accessible concentration inside

| Compound | Delta shift value [ppm] |
| --- | --- |
| CC(O)CN1CCN(CC(=O)[O-])CCN(CC(=O)[O-])CCN(CC(=O)[O-])CC1.[Tm+3] (stereo not drawn) [HP-DO3A-Tm] | 3.5 |
